Measurements reported in article PMC6246607, “Novel AR-12 derivatives, P12-23 and P12-34, inhibit flavivirus replication by blocking host de novo pyrimidine biosynthesis” (Emerging Microbes & Infections, 2018).
Several values for one entry are separate records, joined by “and”; a condition that tells them apart may be missing. Identical values can stand only once.

What was measured:
DENV-2 [1] = assay: Viral RNA replication assay (RT-qPCR); type: cell-based, dengue virus; details: 1 µM added at 1 hpi versus 2′CMA 20 µM, A549 cells, DENV-2 MOI 5
Experimental: Viral infection (MOI 5) and drug treatment were performed as described for the virus translation assay. Cells were harvested for real-time RT-PCR analysis after removing the cell-free viruses at 1, 2, 3, 6, 9, 12, 18, and 27 hpi. Viral RNA was quantified and normalized with actin RNA as described for the virus binding assay.

JEV-eGFP = assay: microbe, parasite or virus in culture; type: cell-based, Japanese encephalitis virus; details: for relative potency versus AR-12 (fold): JEV; for SI (CC50/IC50): JEV-eGFP; for IC50: Japanese encephalitis virus, A549, 24 h
Experimental: (§1) Approximately 50% of confluent cells seeded in 96-well plates were infected with viruses in the presence of drugs or DMSO as a solvent control. At 24 h post-infection (hpi), cells were fixed with 4% paraformaldehyde at room temperature (RT) for 20 min, permeated with a 0.5% Triton X-100 buffer for 2 min, and blocked with 3% BSA for 30 min. Nuclei were stained with DAPI (Sigma) at RT for 20 min. Viral NS3 was stained with a mouse anti-NS3 monoclonal antibody (mAb)[47] followed by staining with an Alexa Fluor 488-conjugated goat anti-mouse IgG antibody (ThermoFisher) at RT for 1 h. Nine images from different fields per well were acquired and analyzed using an ImageXpress Micro XLS Widefield High-Content Analysis System (Molecular Devices, Sunnyvale, USA). To quantify viral infection, the fluorescence intensities of viral NS3 or eGFP from the reporter virus were measured using MetaXpress® (Molecular Devices, Sunnyvale, USA) and were calculated with a mock control (infection as 0%) and a DMSO solvent control (infection as 100%).

DENV-2 [2] = assay: Viral binding assay; type: cell-based, dengue virus; details: 1 µM, A549 cells, DENV-2 MOI 5, 4 °C 1 h
Experimental: A549 cells and DENV-2 separately pretreated with P12-23 (1 µM), P12-34 (1 µM) or heparin (100 unit/ml) at 37 ℃ for 1 h were mixed to allow for viral adsorption at a multiplicity of infection (MOI) of 5 at 4 °C for 1 h. After washing off unbound viruses, RNA was extracted using an RNeasy® Mini Kit (QIAGEN, Hilden, Germany), and viral titers were quantified by real-time RT-PCR as previously described[48] using DENV-2 primers (5′-[…]-3′ and 5′-[…]-3′) and β-actin primers (5′-[…]-3′ and 5′-[…]-3′). After the RNA was normalized to the internal control in each sample, the relative level of viral RNA was determined using the DMSO solvent control.

DENV-2 [3] = assay: Viral entry assay; type: cell-based, dengue virus; details: 1 µM, A549 cells, DENV-2 MOI 5
Experimental: A549 cells pretreated with P12-23 (1 µM), P12-34 (1 µM) or Pitstop®2 (5 µM) at 37 ℃ for 1 h were absorbed with DENV-2 (MOI 5) at 4 °C for 1 h. After removing the unbound viruses, cells were shifted to 37 ℃ for 30 min for viral entry. The cell surface-associated viruses were then removed by treatment with trypsin-EDTA (ThermoFisher) at 37 °C for 10 min. Viral entry indicated by E protein positivity was determined using a BD FACSCalibur Flow Cytometer (BD) after immunofluorescent staining with an anti-E mAb[47].

A549 cells [4] = assay: LDH release cytotoxicity assay; type: cell-based, human; details: 24 h; for CC50: A549 cells; for noncytotoxic concentrations: human A549 cells
Experimental: (§2) Cells were treated with compounds at the indicated concentrations for 24 h. The release of lactate dehydrogenase (LDH) was measured using a Cytotoxicity Detection Kit (Roche, Basel, Switzerland) after removing cell debris. Cells treated with 1% Triton X-100 were used to determine the maximal LDH release.

[5] = LDH release cytotoxicity assay; type: cell-based, human; details: human, A549 cells
Experimental: as §2

A549 cells [6] = assay: ER stress and autophagy western blot in A549 cells; type: cell-based, human; details: 1 µM, 24 h
Experimental: Supplementary figure 2. […] A549 cells with or without DENV-2 (MOI 5) infection were treated with P12-23 (1 μM), tunicamycin (TM) (5 μg/ml), thapsigargin (TG) (0.5 μM), or chemical chaperon 4-Phenylbutyric acid (4-PBA) (10 mM) for 24 h. Cell lysates were harvested for western blot analysis with antibodies against the indicated proteins.

ZIKV = assay: High-content image analysis of ZIKV infection (NS3) in A549 cells; type: cell-based, Zika virus; details: for SI (CC50/IC50) / relative potency versus AR-12 (fold) / IC50: ZIKV; for IC50: Zika virus, MOI 0.5, A549 cells, 24 h
Experimental: as §1

DENV-2-eGFP = assay: microbe, parasite or virus in culture; type: cell-based, dengue virus; details: for SI (CC50/IC50): DENV-2-eGFP; for IC50: Dengue virus, DENV2, A549, 24 h
Experimental: as §1

DENV-2 [7] = assay: Viral translation assay (NS3 western blot); type: cell-based, dengue virus; details: 1 µM added at 1 hpi, A549 cells, DENV-2 MOI 20
Experimental: A549 cells absorbed with DENV-2 (MOI 20) at 4 °C for 1 h were washed to remove unbound viruses. After incubating at 37 °C for 1 h to allow viral entry, cells were treated with P12-23 (1 µM), P12-34 (1 µM) or 2′-c-methyladenosine (20 µM). Cells were harvested at 2, 3, 4, and 6 hpi for western blot analysis as previously described[46] with an anti-NS3 mAb[47] and an anti-actin mAb (NB600-501; Novus Biologicals, Littleton, CO, USA). Protein expression levels were quantified using ImageJ.

DHODH = molecular target: T1, DHODH (Homo sapiens, UniProt Q02127); assay: BP12-34 pull-down, DHODH; type: binding; details: BP12-34 0.25 or 0.5 µM pull-down, A549 cell lysates
T1 construct: endogenous in cells; host or cells: A549 cell lysate
T1 sequence (Q02127 whole entry): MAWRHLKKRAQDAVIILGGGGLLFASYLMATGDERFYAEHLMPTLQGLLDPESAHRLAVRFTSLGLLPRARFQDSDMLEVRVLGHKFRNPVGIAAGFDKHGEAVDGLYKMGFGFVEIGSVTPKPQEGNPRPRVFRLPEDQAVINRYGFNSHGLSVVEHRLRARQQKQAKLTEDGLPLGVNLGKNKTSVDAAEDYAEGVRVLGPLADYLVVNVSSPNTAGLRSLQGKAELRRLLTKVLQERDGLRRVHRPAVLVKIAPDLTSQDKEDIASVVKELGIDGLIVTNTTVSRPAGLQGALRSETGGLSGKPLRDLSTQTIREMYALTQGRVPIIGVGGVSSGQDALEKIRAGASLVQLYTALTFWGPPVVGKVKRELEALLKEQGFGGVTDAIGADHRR
Experimental: (§3) Supplementary figure 4. P12-34 interacts with cytochrome bc1 complex. Cell lysates of A549 were treated with 0.25 μM (+) or 0.5 μM (++) BP12-34 at 4 ℃ for 1 h, then incubated with streptavidin (SA) beads at 4 ℃ for 30 min. Non-specific binding was removed by washing with PBS. After precipitation, P12-34-associated proteins were analyzed by western blot with the indicated antibodies against DHODH and cytochrome bc1 complex.

DENV-4 = assay: High-content image analysis of DENV-4 infection (NS3) in A549 cells; type: cell-based, dengue virus
Experimental: as §1

DENV-1 = assay: High-content image analysis of DENV-1 infection (NS3) in A549 cells; type: cell-based, dengue virus
Experimental: as §1

wild-type DENV (DENV1-4) = assay: High-content image analysis, all four serotypes of wild-type DENV in A549 cells; type: cell-based; details: Dengue virus, DENV1, A549, read-out: IC50 range over the four serotypes
Experimental: as §1

DENV-3 = assay: High-content image analysis of DENV-3 infection (NS3) in A549 cells; type: cell-based, dengue virus
Experimental: as §1

[8] = system: interferon (IFN)-stimulated response element (ISRE) reporter; assay: ISRE reporter assay and IFN-stimulated gene expression in HEK 293T cells; type: cell-based, human; details: 1 µM, 24 h
Experimental: Short synthetic 5′-triphosphate RNA molecules (ssRNA) was synthesized with use of the RiboMAX™ Large Scale RNA Production Kit (P1280, Promega) from control DNA template in the kit, then extracted with the RNeasy® Mini Kit (QIAGEN). About 80% confluent HEK 293T cells in 48 well-plate were co-transfected with pISRE-Luc (Stratagene, Ref 219089) (10 ng/well) and pRL-TK Renilla reporter plasmids (E2241, Promega) (2 ng/well), and increasing doses of ssRNA, then treated with DMSO, 1 μM brequinar, or 1 μM P12-34 for 24h. The luciferase activities were analyzed by using the Dual-Luciferase® Reporter Assay Kit (Promega) and SpectraMax L Microplate Reader (Molecular devices, San Jose, CA, USA). ISRE-Luciferase activity was firstly normalized with Renilla-luciferase activity, then normalized with DMSO control without ssRNA.
Supplementary figure 5. P12-34 amplifies innate immune response. (a) HEK 293T cells were co-transfected with pISRE-luc and pRL-TK Renilla reporter plasmids, and short synthetic 5′-triphosphate RNA molecules (ssRNA), then treated with DMSO, brequinar (1 μM), or P12-34 (1 μM) for 24 h. ISRE-Luciferase activity was normalized with Renilla-luciferase activity in each sample, and then the relative ISRE-Luc level was determined with the DMSO control without ssRNA. Representative data from repeated experiments are shown as mean and SD (n =3). […]

cytochrome bc1 complex = molecular target: T2, cytochrome bc1 complex (Homo sapiens, UniProt P00156+P22695+P31930); assay: BP12-34 pull-down, cytochrome bc1 complex; type: binding; details: BP12-34 0.25 or 0.5 µM pull-down, A549 cell lysates
T2 construct: endogenous in cells; host or cells: A549 cell lysate
Experimental: as §3

[9] = system: DENV-2 (mouse-adaptive NGC strain); assay: DENV challenge of Stat1-/- mice; type: in vivo
Experimental: Animal studies followed the guidelines of the Academia Sinica Institutional Animal Care and Use Committee. Five-week-old Stat1^−/− mice were subcutaneously challenged with 1 × 10^5 plaque-forming units (PFU) of DENV-2 (mouse-adaptive NGC strain)[29]. P12-34 (2.5 mg/kg per day in 500 µl PBS containing 10% DMSO) or vehicle control was intraperitoneally injected into DENV-2-infected mice for the first 6 days. At 1, 3, 5 and 7 days post-inoculation (dpi), the viral loads in sera were determined by RT-qPCR as previously described.

DENV-2 [10] = assay: High-content image analysis of DENV-2 infection (NS3) in A549 cells; type: cell-based, dengue virus
Experimental: as §1

[11] = P12-34 1 µM, uridine 50 µg/ml, A549 cells

SMILES	suppression of intracellular viral RNA replication (DENV-2 [1])	relative potency versus AR-12 (fold) (JEV-eGFP; A549 cells)	SI (CC50/IC50) (JEV-eGFP; A549 cells)	IC50 (JEV-eGFP)	effect on viral binding (DENV-2 [2])	effect on viral entry (DENV-2 [3])	CC50 (A549 cells [4])	noncytotoxic concentrations (A549 cells [4])	CC50 at 24 h [5]	SI (CC50/IC50) (ZIKV; A549 cells)	relative potency versus AR-12 (fold) (ZIKV; A549 cells)	IC50 (ZIKV)	SI (CC50/IC50) (DENV-2-eGFP; A549 cells)	IC50 (DENV-2-eGFP)	effect on NS3 levels at early stage of infection (viral translation) (DENV-2 [7])	further results
CC(C)(N)C(=O)Nc1ccc(-n2cc(C(F)(F)F)cc2-c2ccc3c(ccc4ccccc43)c2)cc1 [P12-23]	more potent than 2′CMA	~ 10 fold	385.5 ± 11.8	53.2 ± 1.6 nM	no suppressive effect	no suppressive effect	20500 ± 100 nM	≤ 12.5 µM	~20000 nM	158 ± 13.6	~ 10 fold	130 ± 11.7 nM	297 and 296.7 ± 35.1	69.7 ± 8.9 nM	did not reduce NS3 levels until 4~6 h post-infection	induction of ER stress (GRP78, eIF2α phosphorylation) or autophagy (LC3B form II) (A549 cells [6]): did not significantly induce ER stress
N[C@@H](Cc1ccccc1)C(=O)Nc1ccc(-n2cc(C(F)(F)F)cc2-c2ccc3c(ccc4ccccc43)c2)cc1 [P12-34]	more potent than 2′CMA	~ 10 fold	360.3 ± 3.1	56.1 ± 0.5 nM	no suppressive effect	no suppressive effect	20300 ± 200 nM	≤ 12.5 µM	~20000 nM	171.4 ± 16.1	~ 10 fold	119 ± 11.7 nM	388 and 387.9 ± 14.7	52.1 ± 2 nM	did not reduce NS3 levels until 4~6 h post-infection	interaction with DHODH (DHODH): did not appear to interact with DHODH; SI (CC50/IC50) (DENV-4; DENV-4, A549 cells): 317.8 ± 24.9; IC50 (DENV-4; Dengue virus, DENV4, A549, 24 h): 63.9 ± 5.1 nM; suppression of JEV replication with uridine supplement (JEV-eGFP; [11]): this effect of uridine was also noted; SI (CC50/IC50) (DENV-1; DENV-1, A549 cells): 206.3 ± 3.5; IC50 (DENV-1; Dengue virus, DENV1, A549, 24 h): 98 ± 1.7 nM; IC50 (wild-type DENV (DENV1-4)): 62 to 98 nM; SI (CC50/IC50) (DENV-3; DENV-3, A549 cells): 223.4 ± 8.6; IC50 (DENV-3; Dengue virus, DENV3, A549, 24 h): 90.6 ± 3.4 nM; innate immune responses triggered by ssRNA (ISRE reporter, IFIT1, IRF-1) [8]: enhanced the innate immune responses; binding to cytochrome bc1 complex (cytochrome bc1 complex): bind cytochrome bc1 complex in a dose-dependent manner; mice alive at 39 dpi ([9]; Stat1-/- mice, subcutaneous DENV-2 challenge, 2.5 mg/kg per day i.p. for first 6 days, n = 5): 60%; viral genome copy numbers in sera ([9]; Stat1-/- mice, subcutaneous DENV-2 challenge, 2.5 mg/kg per day i.p., especially at 3 dpi): significantly reduced; protection against DENV challenge injected intraperitoneally ([9]; virus injected intraperitoneally, data not shown): did not protect mice; SI (CC50/IC50) (DENV-2 [10]; DENV-2, A549 cells): 326.5 ± 26.4; IC50 (DENV-2 [10]; Dengue virus, DENV2, A549, 24 h): 62.2 ± 4.9 nM; suppression of ZIKV replication with uridine supplement (ZIKV; [11]): this effect of uridine was also noted; suppressive effect on DENV replication with added Oro or DHO (DENV-2-eGFP; P12-34 1 µM, A549 cells, DENV-2-eGFP MOI 5): addition of Oro but not DHO could block the suppressive effect; anti-DENV activity in mitochondria-depleted cells (DENV-2-eGFP; ρ0 A549 cells, DENV-2-eGFP MOI 5, 24 h): lost
Cc1c(-c2ccc(-c3ccccc3F)cc2)nc2ccc(F)cc2c1C(=O)O [brequinar, reference compound]																effect on DENV replication (DENV-2-eGFP; A549 cells, DENV-2-eGFP MOI 5, reversed by exogenous uridine 50 µg/ml): reduced DENV replication in a dose-dependent manner
